These results are taken from patent US10125134B2 (Mirati Therapeutics, Inc., priority 2016, dated 2018).

Counter-ions that a name gives are not always drawn. Like-named read-outs stand apart in the source and are kept apart here.

For one assay, the target named is KRas G12C (Homo sapiens, UniProt P01116, C118S/C51S/C80L/G12C). The assay is described as follows: KRas G12C Modification Assay (LCMS detection of covalent adduct). It counts as binding. The following applies: normalized percent of control; tested at 5 μM concentration for 3 hours. Here is the method:
A 10 μL aliquot of each protein solution was then transferred to a 384 well microtiter plate. Initial compound stocks were generated at fifty times their desired final assay concentration in DMSO.
Exemplary compounds of Formula (I) were diluted 25-fold into K-Ras Assay Buffer to a final of two times their final concentration. A 10 μL aliquot of each diluted compound solution was then added to each of the protein solutions in the microtiter plate to initiate reaction. […] At each time point, the reactions were quenched with 20 μL of a 25 mM acetic acid solution. […] Once all reactions were quenched, the plates were heat sealed and the samples were injected into a LC/MS system for data acquisition.
Samples were injected in their liquid phase onto a C-3 reverse phase column to remove assay buffer and prepare the samples for mass spectrometer. The proteins were eluted from the column using an acetonitrile gradient and fed directly into the mass analyzer. Initial raw data analysis took place in Agilent MassHunter software immediately post data acquisition.
Raw data analysis of the intact protein was exclusively a deconvolution of the multiple charge states of each protein in solution using a maximum entropy deconvolution provided in Mass Hunter. To minimize complexity, only the data over limited mass ranges were considered for analysis, with a minimum of one Dalton mass step intervals. The heights of all masses identified during raw data analysis were exported to be further analyzed in Spotfire® data analysis software.
Final data analysis was a multistep process in the Spotfire® data analysis software package. Briefly, each protein mass was calculated as a percent of the total signal of that sample, that percentage was then normalized to the percentage of signal of the protein in the absence of reactive compounds. Those normalized signals were reported as normalized percent of control (POC). […] Key: “A”≤25% POC; “B”>25% POC−≤50% POC; “C”>50% POC and ND=not determined.

In assay [1] the test system is NCI-H358 cells (express KRas G12C), Phospho-ERK. Nature of the assay: Cellular inhibition of KRas G12C: Phospho-ERK in NCI-H358 cells. It counts as cell-based. The following applies: Homo sapiens, pERK(Thr202/Tyr204) normalized with GAPDH, NCI-H358 cells, 3 hours, read-out: IC50. Here is the method: The cellular inhibition of KRAs G12C by exemplary compounds of the present invention was determined by measuring the amount of a downstream marker of KRas activity, phosphorylated ERK (“Phospho-ERK”).
Cells were plated in poly-D-Lysine coated 96-well plates at a concentration of 50,000 cells/well and allowed to attach for 8-12 hours. Diluted compounds were then added at a final concentration of 0.5% DMSO. After 3 hours, the medium was removed, 150 μL of 4% formaldehyde was added and the plates were incubated for 20 minutes. The plates were washed with PBS, and permeabilized using 150 μL of ice cold 100% methanol for 10 minutes. Non-specific antibody binding to the plates was blocked using 100 μL Licor Blocking Buffer (Li-Cor Biotechnology, Lincoln Nebr.) for 1 hour at room temperature. Positive control samples and samples lacking cells were parallel processed with test samples as standards.
The amount Phospho-ERK was determined using an antibody specific for the phosphorylated form of ERK and compared to the amount of GAPDH. […] The plates were incubated for 2 hours at room temperature. The plates were washed with PBS+0.05% Tween 20.
Secondary antibodies used to visualize primary antibodies were added as follows: Anti-rabbit-680 diluted 1:1000 and Anti-mouse-800 diluted 1:1000 in Licor Block+0.05% Tween 20 and incubated for 1 hour at room temperature. The plates were washed with PBS+0.05% Tween 20. A 100 μL aliquot of PBS was added to each well and the plates were read on a LICOR AERIUS plate reader.
The pERK(Thr202/Tyr204) signal was normalized with the GAPDH signal and percent of DMSO control values were calculated. IC50 values were generated using a 4 parameter fit of the dose response curve. Key: “A”≥0.0001−≤1 μM; and “B”>1 μM.

Consider `C=CC(=O)N1CCN(c2nc(OC(C)CCN(C)C)nc3c2CCN(c2cc(O)cc4ccccc24)C3)CC1` (stereo not shown) [Example 21, 1-(4-(2-((4-(dimethylamino)butan-2-yl)oxy)-7-(3-hydroxynaphthalen-1-yl)-5,6,7,8-tetrahydropyrido[3,4-d]pyrimidin-4-yl)piperazin-1-yl)prop-2-en-1-one], for which the POC entry on KRas G12C was “C (“C”>50% POC)”. In assay [1] (NCI-H358, 3 h), the IC50 fell in the range of 0.1 to 1000 nM.
Take `C=CC(=O)N1CCN(c2nc(OC3CCN(C)CC3)nc3c2CCN(c2cc(O)cc4ccccc24)C3)CC1` [Example 22, 1-(4-(7-(3-hydroxynaphthalen-1-yl)-2-((1-methylpiperidin-4-yl)oxy)-5,6,7,8-tetrahydropyrido[3,4-d]pyrimidin-4-yl)piperazin-1-yl)prop-2-en-1-one]: the POC result on KRas G12C was “C (“C”>50% POC)”. For the same compound, in assay [1] (NCI-H358, 3 h), the IC50 is over 1000 nM.
On the same counts, the results for `C=CC(=O)N1CCN(c2nc(OC3CCN(C)C3)nc3c2CCN(c2cc(O)cc4ccccc24)C3)CC1` (stereo not shown) [Example 23, 1-(4-(7-(3-hydroxynaphthalen-1-yl)-2-((1-methylpyrrolidin-3-yl)oxy)-5,6,7,8-tetrahydropyrido[3,4-d]pyrimidin-4-yl)piperazin-1-yl)prop-2-en-1-one] are “C (“C”>50% POC)” and over 1000 nM.
As for `C=CC(=O)N1CCN(c2nc(OC(C)CN(C)C)nc3c2CCN(c2cccc4ccccc24)C3)CC1` (stereo not shown) [Example 24, 1-(4-(2-((1-(dimethylamino)propan-2-yl)oxy)-7-(naphthalen-1-yl)-5,6,7,8-tetrahydropyrido[3,4-d]pyrimidin-4-yl)piperazin-1-yl)prop-2-en-1-one], the POC result at KRas G12C was “A (“A”≤25% POC)”. Moreover, the IC50 in assay [1] (NCI-H358, 3 h) is over 1000 nM.
For the compound `C=CC(=O)N1CCN(c2nc(OCCCN(C)C)nc3c2CCN(C(C)c2ccccc2)C3)CC1` (stereo not shown) [Example 25, 1-(4-(2-(3-(dimethylamino)propoxy)-7-(1-phenylethyl)-5,6,7,8-tetrahydropyrido[3,4-d]pyrimidin-4-yl)piperazin-1-yl)prop-2-en-1-one], the POC result at KRas G12C is reported as “A (“A”≤25% POC)”. The 50% inhibitory concentration (IC50) in assay [1] is over 1000 nM.
For the compound `C=CC(=O)N1CCN(c2nc(N3CCN(CCO)CC3)nc3c2CCN(c2cc(O)cc4ccccc24)C3)CC1` [Example 26, 1-(4-(2-(4-(2-hydroxyethyl)piperazin-1-yl)-7-(3-hydroxynaphthalen-1-yl)-5,6,7,8-tetrahydropyrido[3,4-d]pyrimidin-4-yl)piperazin-1-yl)prop-2-en-1-one], the POC entry on KRas G12C is “C (“C”>50% POC)”. The IC50 in assay [1] (NCI-H358, 3 h) was over 1000 nM.
Taken in the same sequence, the figures for `C=CC(=O)N1CCN(c2nc(OCCN3CCS(=O)(=O)CC3)nc3c2CCN(c2cc(O)cc4ccccc24)C3)CC1` [Example 33, 1-(4-(2-(2-(1,1-dioxidothiomorpholino)ethoxy)-7-(3-hydroxynaphthalen-1-yl)-5,6,7,8-tetrahydropyrido[3,4-d]pyrimidin-4-yl)piperazin-1-yl)prop-2-en-1-one trifluoroacetate] were “B (“B”>25% POC−≤50% POC)” and over 1000 nM.
On the same counts, the results for `C=CC(=O)N1CCN(c2nc(OCCCN3CCS(=O)(=O)CC3)nc3c2CCN(c2cc(O)cc4ccccc24)C3)CC1` [Example 34, 1-(4-(2-(3-(1,1-dioxidothiomorpholino)propoxy)-7-(3-hydroxynaphthalen-1-yl)-5,6,7,8-tetrahydropyrido[3,4-d]pyrimidin-4-yl)piperazin-1-yl)prop-2-en-1-one trifluoroacetate] are “A (“A”≤25% POC)” and over 1000 nM.
On the same counts, the results for `C=CC(=O)N1CCN(c2nc(OCCCCN3CCOCC3)nc3c2CCN(c2cc(O)cc4ccccc24)C3)CC1` [Example 35, 1-(4-(7-(3-hydroxynaphthalen-1-yl)-2-(4-morpholinobutoxy)-5,6,7,8-tetrahydropyrido[3,4-d]pyrimidin-4-yl)piperazin-1-yl)prop-2-en-1-one trifluoroacetate] are “C (“C”>50% POC)” and over 1000 nM.
On to `C=CC(=O)N1CCN(c2nc(O[C@H](C)CN3CCN(C(C)=O)CC3)nc3c2CCN(c2cc(O)cc4ccccc24)C3)CC1` [Example 36, (R)-1-(4-(2-((1-(4-acetylpiperazin-1-yl)propan-2-yl)oxy)-7-(3-hydroxynaphthalen-1-yl)-5,6,7,8-tetrahydropyrido[3,4-d]pyrimidin-4-yl)piperazin-1-yl)prop-2-en-1-one], for which the POC entry on KRas G12C was “C (“C”>50% POC)”. Also, in assay [1] (NCI-H358, 3 h), the IC50 was over 1000 nM.
Regarding `C=CC(=O)N1CCN(c2nc(OCCN3CCN(C(C)=O)CC3)nc3c2CCN(c2cc(O)cc4ccccc24)C3)CC1` [Example 37, 1-(4-(2-(2-(4-acetylpiperazin-1-yl)ethoxy)-7-(3-hydroxynaphthalen-1-yl)-5,6,7,8-tetrahydropyrido[3,4-d]pyrimidin-4-yl)piperazin-1-yl)prop-2-en-1-one], the POC result on KRas G12C was “C (“C”>50% POC)”. Moreover, the IC50 in assay [1] (NCI-H358, 3 h) was over 1000 nM.
Taken in the same sequence, the figures for `C=CC(=O)N1CCN(c2nc(OCCCN3CCCCC3)nc3c2CCN(c2cc(O)cc4ccccc24)C3)CC1` [Example 38, 1-(4-(7-(3-hydroxynaphthalen-1-yl)-2-(3-(piperidin-1-yl)propoxy)-5,6,7,8-tetrahydropyrido[3,4-d]pyrimidin-4-yl)piperazin-1-yl)prop-2-en-1-one] were “C (“C”>50% POC)” and 0.1 to 1000 nM.
Taken in the same sequence, the figures for `C=CC(=O)N1CCN(c2nc(OCCCN3CCCC3)nc3c2CCN(c2cc(O)cc4ccccc24)C3)CC1` [Example 39, 1-(4-(7-(3-hydroxynaphthalen-1-yl)-2-(3-(pyrrolidin-1-yl)propoxy)-5,6,7,8-tetrahydropyrido[3,4-d]pyrimidin-4-yl)piperazin-1-yl)prop-2-en-1-one] were “C (“C”>50% POC)” and 0.1 to 1000 nM.
In the case of `C=CC(=O)N1CCN(c2nc(OCCCCN(C)C)nc3c2CCN(c2cc(O)cc4ccccc24)C3)CC1` [Example 40, 1-(4-(2-(4-(dimethylamino)butoxy)-7-(3-hydroxynaphthalen-1-yl)-5,6,7,8-tetrahydropyrido[3,4-d]pyrimidin-4-yl)piperazin-1-yl)prop-2-en-1-one], on KRas G12C, the POC result is given as “C (“C”>50% POC)”. Also, the IC50 in assay [1] (NCI-H358, 3 h) was in the range of 0.1 to 1000 nM.
`C=CC(=O)N1CCN(c2nc(OCCCN3CCOCC3)nc3c2CCN(c2cc(O)cc(C4CC4)c2)C3)CC1` [Example 41, 1-(4-(7-(3-cyclopropyl-5-hydroxyphenyl)-2-(3-morpholinopropoxy)-5,6,7,8-tetrahydropyrido[3,4-d]pyrimidin-4-yl)piperazin-1-yl)prop-2-en-1-one trifluoroacetate]: the POC result at KRas G12C is given as “A (“A”≤25% POC)”. Moreover, the IC50 in assay [1] was over 1000 nM.
On the same counts, the results for `C=CC(=O)N1CCN(c2nc(OCCCN3CCOCC3)nc3c2CCN(c2cc(O)ccc2F)C3)CC1` [Example 42, 1-(4-(7-(2-fluoro-5-hydroxyphenyl)-2-(3-morpholinopropoxy)-5,6,7,8-tetrahydropyrido[3,4-d]pyrimidin-4-yl)piperazin-1-yl)prop-2-en-1-one] are “A (“A”≤25% POC)” and over 1000 nM.
Turning to `C=CC(=O)N1CCN(c2nc(OCCCN3CCOCC3)nc3c2CCN(c2cc(O)cc4cc(C)ccc24)C3)CC1` [Example 43, 1-(4-(7-(3-hydroxy-6-methylnaphthalen-1-yl)-2-(3-morpholinopropoxy)-5,6,7,8-tetrahydropyrido[3,4-d]pyrimidin-4-yl)piperazin-1-yl)prop-2-en-1-one], the POC entry at KRas G12C is listed as “C (“C”>50% POC)”. For the same compound, the IC50 in assay [1] was over 1000 nM.

A word on the IC50: it is the concentration that gives 50% inhibition.
